Read-outs that look alike come from different tables or passages of the source.
Experiments:
[1] = solubility (characterization); format: physicochemical
Gram-positive organisms = experiment: antibacterial activity, general statement; format: cell-based; conditions: including organisms resistant to penicillins, macrolides and lincosaminides
[2] = in water; background statement; cited from earlier work
[3] = free acid form, in phosphate buffers at physiological pH (7.0-7.5)
[4] = in chloroform, methylene chloride
[5] = in ether and saturated hydrocarbon solvents
[6] = in lower alcohols, ketones, ethyl acetate

CC=C(NC(=S)SCC(NC(C)=O)C(=O)O)C(=O)OC1C(COC(C)=O)OC(C2(O)CC(=O)C(O)=C(C(N)=O)C2=O)C(O)C1OC1CC(OC)C(O)(C(C)OC(=O)C(C)CC)C(C)O1 (stereo not drawn) [Antibiotic 273a2α]
Solubility [1, 3]: soluble
Solubility ([1]; free acid form, in water): insoluble
Solubility [1, 4]: less soluble
Solubility [1, 5]: insoluble
Solubility [1, 6]: Soluble
Solubility ([1]; salts, in water): soluble
activity against Gram-positive organisms (Gram-positive organisms): active

CC=C(NC(=S)SCC(NC(C)=O)C(=O)O)C(=O)OC1C(COC(C)=O)OC(C2(O)CC(=O)C(O)=C(C(N)=O)C2=O)C(O)C1OC1CC(OC)C(O)(C(C)OC(=O)C(C)C)C(C)O1 (stereo not drawn) [Antibiotic 273a2β]
Solubility [1, 3]: soluble
Solubility ([1]; free acid form, in water): insoluble
Solubility [1, 4]: less soluble
Solubility [1, 5]: insoluble
Solubility [1, 6]: Soluble
Solubility ([1]; salts, in water): soluble
activity against Gram-positive organisms (Gram-positive organisms): active

paulomycin
Solubility [2]: relatively insoluble

From EP0162568A2, “Paulomycin analogues and their preparation” (THE UPJOHN COMPANY, priority 1984, dated 1985)
